The structures appear in SMILES notation.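 Test compounds were applied to cells in 96-well plates for 48 hours at 5 doses. Here, GI50 denotes the concentration required for 50% inhibition of growth. Definition used: TGI = concentration required for complete inhibition of growth.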

The first experiment has as its system DU-145 prostate. Nature of the experiment: DTP human tumour cell line panel, 48 h.
A word on the GI50: it is the concentration that inhibits growth by half. As usually defined, the TGI is the concentration giving total growth inhibition. Read a low TGI as greater sensitivity of the cells. `COc1ccc(-c2nnc(COc3ccc(C(=O)/C=C/c4ccco4)cc3)o2)cc1`: the GI50 is 2.33 µM and the TGI came out at 5.72 µM.
Molecule `OC(c1nc2ccccc2[nH]1)C(O)C(O)C(O)c1nc2ccccc2[nH]1` (stereo not given) yielded a TGI of over 100 µM.
In the case of `COc1cc2c3c(n(C)c(=O)c2cc1OC)-c1cc2c(cc1/C3=C\CCCN)OCO2`, the GI50 is 5.57 µM and the TGI was 54.1 µM.
The corresponding values for `Cc1c2c(nn1-c1ccc(S(=O)(=O)/N=C3\SCCC(=O)N3c3ccccc3)cc1)-c1ccccc1CC2` are over 100 µM and over 100 µM.
The corresponding values for `C=C1C(=O)O[C@H]2[C@H]1CC/C(COC(=O)c1c[nH]c3ccccc13)=C\CC[C@@]1(C)O[C@@H]21` are 0.383 µM and 1.4 µM.
`O=C1NCC2(CCN(CCCC3(c4ccc(F)cc4)OCCO3)CC2)N1c1ccccc1`: the TGI was over 100 µM.
On to `CCN(CC)/C(SCc1ccccc1)=C(\C(Cl)=C(Cl)Cl)[N+](=O)[O-]`, for which the TGI worked out at 39.2 µM.
As to `COc1cc(/C=C2\CN(S(=O)(=O)c3ccccc3)C/C(=C\c3cc(CN4CCCC4)c(O)c(OC)c3)C2=O)cc(CN2CCCC2)c1O`, the GI50 was 0.542 µM and the TGI was found to be 1.91 µM.

In another experiment the test system is SNB-75 CNS. As to the kind of experiment: DTP human tumour cell line panel, 48 h.
Take `CCOC(=O)c1cc2nc3ccccc3c(=O)n2c2ccccc12`: the TGI is over 10 µM.
On the same count and under the same terms, in the case of `Cc1ccc(S(=O)(=O)Nc2ccccc2C(=O)c2ccc(C)c(C)c2)cc1` it was over 100 µM; in that of `COc1c(Cl)c(=O)oc2ccc(Cl)cc12`, over 100 µM.
Still for that read-out and setting: the figure for `NS(=O)(=O)c1cc(Br)c(N=Nc2ccc(O)c3ncccc23)c(Br)c1` is 73.7 µM.
Consider `Cc1cc(I)cc(CN(C)CCCN2CCCCC2)c1O`, for which the GI50 was 16.6 µM and the TGI stood at 34.8 µM.
Take `COc1cc(NCc2ccc3oc(=O)c(-c4ccccc4)nc3c2)cc(OC)c1OC`: the TGI is over 10 µM.
`Cc1ccccc1S(=O)(=O)OC1NS(=O)(=O)c2ccccc21` (stereo not given) displayed a TGI of over 100 µM.
On to `CC(=O)[C@@]12O[C@@H]1CC1C3CCC4=CC(O)CCC4(C)C3CCC12C` (stereo not given in full), for which the GI50 is 18.7 µM and the TGI worked out at 50.8 µM.
Consider `C=C(Br)C(C)(Br)CCC(Br)C(C)(C)Cl` (stereo not given), for which the TGI came out at 33.9 µM. This counts as double-digit micromolar.
Take `COc1ccc(-c2nnc(COc3ccc(NC(=O)Nc4cc(C(F)(F)F)cc(C(F)(F)F)c4)cc3F)o2)cc1`: the GI50 was 2.02 µM and the TGI was found to be 6.37 µM.
For `COc1ccc(/C=C(/C#N)n2nnc3cccc(F)c32)cc1` the same measures were 0.206 µM and 0.638 µM.
With `COc1ccc(-c2nnc(COc3ccc(C(=O)/C=C/c4ccco4)cc3)o2)cc1`, the GI50 is 3.04 µM and the TGI worked out at 14.5 µM.
`OC(c1nc2ccccc2[nH]1)C(O)C(O)C(O)c1nc2ccccc2[nH]1` (stereo not given): the TGI was over 100 µM.
For `COc1cc2c3c(n(C)c(=O)c2cc1OC)-c1cc2c(cc1/C3=C\CCCN)OCO2`, the GI50 was 11.2 µM and the TGI was 31.6 µM.
Consider `C=C1C(=O)O[C@H]2[C@H]1CC/C(COC(=O)c1c[nH]c3ccccc13)=C\CC[C@@]1(C)O[C@@H]21`, for which the GI50 is 0.207 µM and the TGI stood at 0.923 µM.
Molecule `O=C1NCC2(CCN(CCCC3(c4ccc(F)cc4)OCCO3)CC2)N1c1ccccc1` gave a TGI of over 100 µM.
In the case of `COc1cc(/C=C2\CN(S(=O)(=O)c3ccccc3)C/C(=C\c3cc(CN4CCCC4)c(O)c(OC)c3)C2=O)cc(CN2CCCC2)c1O`, the GI50 was 1.27 µM and the TGI is 2.71 µM.

A further experiment deals with SN12C renal. Nature of the experiment: DTP human tumour cell line panel, 48 h.
In the case of `CCOC(=O)c1cc2nc3ccccc3c(=O)n2c2ccccc12`, the TGI is over 10 µM.
On the same count and under the same terms, the figure for `Cc1ccc(S(=O)(=O)Nc2ccccc2C(=O)c2ccc(C)c(C)c2)cc1` is over 100 µM; for `COc1c(Cl)c(=O)oc2ccc(Cl)cc12` it is over 100 µM; for `NS(=O)(=O)c1cc(Br)c(N=Nc2ccc(O)c3ncccc23)c(Br)c1` it is over 100 µM.
As for `Cc1cc(I)cc(CN(C)CCCN2CCCCC2)c1O`, the GI50 was 49.9 µM and the TGI is over 100 µM.
As for `COc1cc(NCc2ccc3oc(=O)c(-c4ccccc4)nc3c2)cc(OC)c1OC`, the TGI was over 10 µM.
`Cc1ccccc1S(=O)(=O)OC1NS(=O)(=O)c2ccccc21` (stereo not given) displayed a concentration for total growth inhibition (TGI) of over 100 µM.
`CC(=O)[C@@]12O[C@@H]1CC1C3CCC4=CC(O)CCC4(C)C3CCC12C` (stereo not given in full): the GI50 is 81 µM and the TGI is over 100 µM.
On to `C=C(Br)C(C)(Br)CCC(Br)C(C)(C)Cl` (stereo not given), for which the TGI came to 39.5 µM.
Same read-out and setting: the figure for `O=[N+]([O-])C(/C=C(\Cl)n1nnc2ccccc21)=C(/Cl)n1nnc2ccccc21` is over 100 µM.
For the molecule `O=C1c2cc3c(cc2-c2c1c1ccc(F)cc1c(=O)n2CCCNCCO)OCO3`, the GI50 is 0.108 µM and the concentration for total growth inhibition (TGI) came out at 0.861 µM.
The corresponding values for `COc1ccc(-c2nnc(COc3ccc(NC(=O)Nc4cc(C(F)(F)F)cc(C(F)(F)F)c4)cc3F)o2)cc1` are 1.93 µM and 5.39 µM.
Regarding `COc1ccc(/C=C(/C#N)n2nnc3cccc(F)c32)cc1`, the GI50 is 1.93 µM and the TGI was over 100 µM.
The corresponding values for `COc1ccc(-c2nnc(COc3ccc(C(=O)/C=C/c4ccco4)cc3)o2)cc1` are 3.17 µM and 11.5 µM.
For the molecule `OC(c1nc2ccccc2[nH]1)C(O)C(O)C(O)c1nc2ccccc2[nH]1` (stereo not given), the TGI is over 100 µM.
In the case of `Cc1c2c(nn1-c1ccc(S(=O)(=O)/N=C3\SCCC(=O)N3c3ccccc3)cc1)-c1ccccc1CC2`, the GI50 was 87.5 µM and the TGI was over 100 µM.
For `C=C1C(=O)O[C@H]2[C@H]1CC/C(COC(=O)c1c[nH]c3ccccc13)=C\CC[C@@]1(C)O[C@@H]21` the same measures were 0.237 µM and 0.623 µM.
As for `O=C1NCC2(CCN(CCCC3(c4ccc(F)cc4)OCCO3)CC2)N1c1ccccc1`, the TGI is over 100 µM.
Same read-out and setting: in the case of `CCN(CC)/C(SCc1ccccc1)=C(\C(Cl)=C(Cl)Cl)[N+](=O)[O-]` it was 42.4 µM.
Turning to `COc1cc(/C=C2\CN(S(=O)(=O)c3ccccc3)C/C(=C\c3cc(CN4CCCC4)c(O)c(OC)c3)C2=O)cc(CN2CCCC2)c1O`, the GI50 is 1.08 µM and the TGI came to 3.22 µM.

The test system of the next experiment is SK-OV-3 ovarian. Nature of the experiment: DTP human tumour cell line panel, 48 h.
On to `CCOC(=O)c1cc2nc3ccccc3c(=O)n2c2ccccc12`, for which the TGI was over 10 µM.
In turn, `Cc1ccc(S(=O)(=O)Nc2ccccc2C(=O)c2ccc(C)c(C)c2)cc1` gave a TGI of over 100 µM.
Still for that read-out and setting: in the case of `COc1c(Cl)c(=O)oc2ccc(Cl)cc12` it was over 100 µM.

The values above are taken from PubChem BioAssay (NCI).
